Reference: patent publication US6583150B1, “Pharmaceutical composition based on polyaromatic compounds” (Laboratorie L. Lafon, priority 1999, dated 2003)

Legend:
U-87MG = assay: MTT cytotoxicity test, U-87MG; assay type: cell-based; conditions: Homo sapiens, U-87MG glioblastoma, 72 hours, read-out: concentrations flanking the IC50
Experimental: (§1) The influence of the compounds of formulae I and II on neoplastic cells was evaluated using the MTT calorimetric test. The principle of the MTT test is based on the mitochondrial reduction by metabolically active live cells of the yellow-colored product MTT (3-(4,5-dimethylthiazol-2-yl)-2,5-diphenyltetrazolium bromide) to a blue-colored product, formazan. The amount of formazan thus obtained is directly proportional to the amount of live cells present in the culture well(s). This amount of formazan is measured by spectrophotometry.
(§2) The cell lines are maintained in monolayer culture at 37° C. in stoppered culture dishes containing 25 MM HEPES MEM (Minimum Essential Medium) base medium. This medium, which is suitable for growing a range of varied diploid or primary mammalian cells, is then supplemented: […]
(§3) with a an amount of 5% FCS (Fetal Calf Serum) decomplemented at 56° C. for 1 hour, with 0.6 mg/mL of L-glutamine, with 200 IU/mL of penicillin, with […] of streptomycin, with 0.1 mg/mL of gentamicin.
(§4) The 12 human cancer cell lines used were obtained from the American Type Culture Collection (ATCC, Rockville, Md., USA). These 12 cell lines are:
U-373MG (code ATCC: HTB-17) and U-87MG (code ATCC: HTB-14) which are two glioblastomas, Experimentally: 100 μl of a cell suspension containing 200 000 to 50 000 (depending on the cell type used) cells/mL of culture medium are inoculated in flat-bottomed 96-well multi-well plates and are incubated at 37° C. under an atmosphere comprising 5% CO2 and 70% humidity. […] The intensity of the resulting blue coloration, and thus of the conversion of the yellow MTT product into blue formazan by the cells that are still alive at the end of the experiment is quantified by spectrophotometry using a DYNATECH IMMUNOASSAY SYSTEM machine at wavelengths of 570 nm and 630 nm corresponding, respectively, to the maximum absorption wavelengths of formazan and to the background noise. […]

[1] = test system: 12 human tumor lines: U-87MG, U-373MG, SW 1088, T24, J82, HCT-15, LoVo, MCF7, T-47D, A549, A-427 and PC-3; assay: MTT cytotoxicity test, panel of the 12 human tumor lines; assay type: cell-based; conditions: Homo sapiens, read-out: average IC50
Experimental: as §1, §2, §3, §4
U-373MG (code ATCC: HTB-17) and U-87MG (code ATCC: HTB-14) which are two glioblastomas, SW1088 (code ATCC: HTB-12) which is an astrocytoma, A549 (code ATCC: CCL-185) and A-427 (code ATCC: HTB-53) which are two non-small-cell lung cancers, HCT-15 (code ATCC: CCL-225) and LoVo (code ATCC: CCL-229) which are two colorectal cancers, T-47D (code ATCC: HTB-133) and MCF7 (code ATCC: HTB-22) which are two breast cancers, J82 (code ATCC: HTB-1) and T24 (code ATCC: HTB-4) which are two bladder cancers, PC-3 (code ATCC: CRL-1435) which is a prostate cancer.
Experimentally: 100 μl of a cell suspension containing 200 000 to 50 000 (depending on the cell type used) cells/mL of culture medium are inoculated in flat-bottomed 96-well multi-well plates and are incubated at 37° C. under an atmosphere comprising 5% CO2 and 70% humidity. After incubating for 24 hours, the culture medium is replaced with 100 μl of fresh medium containing either the various test compounds at concentrations ranging from 10^−5 to 10^−10 M or the solvent used to dissolve the test products (control condition). After incubating for 72 hours under the above conditions, the culture medium is replaced with 100 μl of a yellowish solution of MTT dissolved at a rate of 1 mg/mL in RPMI 1640. The microplates are reincubated for 3 hours at 37° C. and then centrifuged for 10 minutes at 400×g. The yellowish solution of MTT is removed and the blue formazan crystals formed at the cellular level are dissolved in 100 μl of DMSO. The microplates are then agitated for 5 minutes. The intensity of the resulting blue coloration, and thus of the conversion of the yellow MTT product into blue formazan by the cells that are still alive at the end of the experiment is quantified by spectrophotometry using a DYNATECH IMMUNOASSAY SYSTEM machine at wavelengths of 570 nm and 630 nm corresponding, respectively, to the maximum absorption wavelengths of formazan and to the background noise. Software built into the spectrophotometer calculates the average optical density values and also the standard deviation (Std. Dev.) and standard error of mean (SEM) values.
The inhibitory activity on the cell growth of the compounds of formula I and of formula II on the different tumor cell lines was compared with that of the natural product meridine (CRL 8348). All of the compounds of formula I and of formula II show significant inhibitory activity on the cell proliferation of the 12 human tumor lines: U-87MG, U-373MG, SW 1088, T24, J82, HCT-15, LoVo, MCF7, T-47D, A549, A-427 and PC-3 with an inhibitory concentration 50 (IC50) which is between 10^−6 M and 10^−10M, depending on the compounds and the tumor lines tested. By way of example, the values of the concentrations flanking the IC50 which are obtained on the various cell lines are given in table II: […]

Compound: O=C1c2ncccc2-c2nc3ccccc3c3ccnc1c23 [CRL 8299, Benzo[b]pyrido[4,3,2-de][1,7]phenanthroline-8-one]
- IC50 (U-87MG): < 0.1 nM
- IC50 [1]: 2.2 nM
